Measurements taken from patent US20070027150A1 (priority 2005, published 2007).

Molecular target: His-tagged N-terminal ATP binding domain (amino acid residues 9-236) of HSP90α (Homo sapiens, UniProt P07900)
Assay: HSP90 inhibitor binding potency: TRF competition binding assay
Conditions: Table I; read-out: Hsp90 IC50 Range
Procedure: HSP90 Inhibitor Binding Potency: TRF Binding Assay
In this example, the binding potency of HSP90 inhibitors as measured by a TRF binding assay is described.
TRF competition binding assays were performed to determine the binding potency (IC50 values) of HSP90 inhibitors. Purified His-tagged N-terminal ATP binding domain (amino acid residues 9-236) of HSP90α (HSP90α GeneID: 3320; mRNA Sequence NM_005348) was incubated for two hours at room temperature in binding buffer (50 mM HEPES, 6 mM MgCl2, 20 mM KCl and 0.1% BSA) with biotinylated radicicol and progressively higher concentrations of the competing compounds. A fraction of the mixture was transferred to capture plates (coated with streptavidin) and incubated for one hour at room temperature. After washing with DELFIA wash buffer, europium-labeled anti-his antibody was added and incubated for two hours at room temperature, followed by washing with DELFIA buffer. DELFIA enhancement solution was then added. After gentle shaking for 10 minutes, the plates were read in VICTOR for europium counts.

Row | Structure (SMILES) | IC50 [µM]
1 | Cc1nc(N)nc2c1C(=O)CC(c1ccccc1-c1cnn(C)c1)C2 (stereo not shown) [Compound 43, 2-amino-4-methyl-7-[2-(1-methyl-1H-pyrazol-4-yl)phenyl]-7,8-dihydroquinazolin-5(6H)-one] | 1 to 10
2 | Cc1nc(N)nc2c1C(=O)CC(c1cccnc1C1=CCCCC1)C2 (stereo not shown) [Compound 45, 2-amino-7-(2-cyclohex-1-en-1-ylpyridin-3-yl)-4-methyl-7,8-dihydroquinazolin-5(6H)-one] | < 1
3 | Cc1nc(N)nc2c1C(=O)CC(c1ccccc1-c1ccsc1)C2 (stereo not shown) [Compound 46, 2-amino-4-methyl-7-(2-thien-3-ylphenyl)-7,8-dihydroquinazolin-5(6H)-one] | < 1
4 | Cc1nc(N)nc2c1C(=O)CC(c1nn(C)cc1C1CCCCC1)C2 (stereo not shown) [Compound 47, 2-amino-7-(4-cyclohexyl-1-methyl-1H-pyrazol-3-yl)-4-methyl-7,8-dihydro-6H-quinazolin-5-one] | < 1
5 | Cc1nc(N)nc2c1C(=O)CC(c1c(C3CCCCC3)cnn1C)C2 (stereo not shown) [Compound 48, 2-amino-7-(4-cyclohexyl-2-methyl-2H-pyrazol-3-yl)-4-methyl-7,8-dihydro-6H-quinazolin-5-one] | < 1
6 | Cc1ccccc1-c1ccccc1C1CC(=O)c2c(C)nc(N)nc2C1 (stereo not shown) [Compound 49, 2-amino-4-methyl-7-(2′-methyl-1,1′-biphenyl-2-yl)-7,8-dihydroquinazolin-5(6H)-one] | < 1
7 | Cc1cccc(-c2ccccc2C2CC(=O)c3c(C)nc(N)nc3C2)c1 (stereo not shown) [Compound 50, 2-amino-4-methyl-7-(3′-methyl-1,1′-biphenyl-2-yl)-7,8-dihydroquinazolin-5(6H)-one] | 1 to 10
8 | Cc1nc(N)nc2c1C(=O)CC(c1ccccc1-c1cccc(F)c1)C2 (stereo not shown) [Compound 52, 2-amino-7-(3′-fluoro-1,1′-biphenyl-2-yl)-4-methyl-7,8-dihydroquinazolin-5(6H)-one] | < 1
9 | Cc1nc(N)nc2c1C(=O)CC(c1ccccc1-c1ccc(F)cc1)C2 (stereo not shown) [Compound 53, 2-amino-7-(4′-fluoro-1,1′-biphenyl-2-yl)-4-methyl-7,8-dihydroquinazolin-5(6H)-one] | < 1
10 | Cc1nc(N)nc2c1C(=O)CC(c1cccc(-c3cccnc3F)c1)C2 (stereo not shown) [Compound 54] | > 10
11 | Cc1nc(N)nc2c1C(=O)CC(c1ccccc1-c1cccnc1F)C2 (stereo not shown) [Compound 55, 2-amino-7-[2-(2-fluoropyridin-3-yl)phenyl]-4-methyl-7,8-dihydroquinazolin-5(6H)-one] | < 1
12 | Cc1nc(N)nc2c1C(=O)CC(c1cccc(-c3ccccc3F)c1)C2 (stereo not shown) [Compound 58] | > 10
13 | Cc1nc(N)nc2c1C(=O)CC(c1ccccc1-c1c(C)noc1C)C2 (stereo not shown) [Compound 59, 2-amino-7-[2-(3,5-dimethylisoxazol-4-yl)phenyl]-4-methyl-7,8-dihydroquinazolin-5(6H)-one] | 1 to 10
14 | Cc1nc(N)nc2c1C(=O)CC(c1ccc(F)cc1-c1cncnc1)C2 (stereo not shown) [Compound 60, 2-amino-7-(4-fluoro-2-pyrimidin-5-yl-phenyl)-4-methyl-7,8-dihydro-6H-quinazolin-5-one] | < 1
15 | Cc1nc(N)nc2c1C(=O)CC(c1c(O)cccc1C1=CCCCC1)C2 (stereo not shown) [Compound 62, 2-amino-7-(2-cyclohex-1-enyl-6-hydroxy-phenyl)-4-methyl-7,8-dihydro-6H-quinazolin-5-one] | < 1
16 | Cc1nc(N)nc2c1C(=O)CC(c1nn(C)cc1-c1cccnc1F)C2 (stereo not shown) [Compound 63, 2-amino-7-[4-(2-fluoro-pyridin-3-yl)-1-methyl-1H-pyrazol-3-yl]-4-methyl-7,8-dihydro-6H-quinazolin-5-one] | < 1
17 | Cc1nc(N)nc2c1C(=O)CC(c1c(-c3cccnc3F)cnn1C)C2 (stereo not shown) [Compound 64, 2-amino-7-[4-(2-fluoro-pyridin-3-yl)-2-methyl-2H-pyrazol-3-yl]-4-methyl-7,8-dihydro-6H-quinazolin-5-one] | 1 to 10
18 | Cc1nc(N)nc2c1C(=O)CC(c1ccccc1-c1cccc(C#N)c1)C2 (stereo not shown) [Compound 65, 2′-(2-amino-4-methyl-5-oxo-5,6,7,8-tetrahydroquinazolin-7-yl)-1,1′-biphenyl-3-carbonitrile] | 1 to 10
19 | Cc1ccc(-c2ccccc2C2CC(=O)c3c(C)nc(N)nc3C2)c(C)n1 (stereo not shown) [Compound 66, 2-amino-7-[2-(2,6-dimethylpyridin-3-yl)phenyl]-4-methyl-7,8-dihydroquinazolin-5(6H)-one] | 1 to 10
20 | Cc1nc(N)nc2c1C(=O)CC(c1ccccc1-c1ccccc1CO)C2 (stereo not shown) [Compound 67, 2-amino-7-[2′-(hydroxymethyl)-1,1′-biphenyl-2-yl]-4-methyl-7,8-dihydroquinazolin-5(6H)-one] | < 1
21 | Cc1nc(N)nc2c1C(=O)CC(c1ccccc1-c1ccccc1CO)C2 (stereo not shown) [Compound 68, 2-amino-7-[2′-(hydroxymethyl)-1,1′-biphenyl-2-yl]-4-methyl-7,8-dihydroquinazolin-5(6H)-one] | < 1
22 | COc1ncccc1-c1ccccc1C1CC(=O)c2c(C)nc(N)nc2C1 (stereo not shown) [Compound 70, 2-amino-7-[2-(2-methoxypyridin-3-yl)phenyl]-4-methyl-7,8-dihydroquinazolin-5(6H)-one] | < 1
23 | COc1ccncc1-c1ccccc1C1CC(=O)c2c(C)nc(N)nc2C1 (stereo not shown) [Compound 72, 2-amino-7-[2-(4-methoxypyridin-3-yl)phenyl]-4-methyl-7,8-dihydroquinazolin-5(6H)-one] | 1 to 10
24 | COc1ccc(-c2cncnc2)c(C2CC(=O)c3c(C)nc(N)nc3C2)c1 (stereo not shown) [Compound 75, 2-amino-7-(5-methoxy-2-pyrimidin-5-ylphenyl)-4-methyl-7,8-dihydroquinazolin-5(6H)-one] | 1 to 10
25 | COc1cccc(C2=CCCCC2)c1C1CC(=O)c2c(C)nc(N)nc2C1 (stereo not shown) [Compound 78, 2-amino-7-(2-cyclohex-1-en-1-yl-6-methoxyphenyl)-4-methyl-7,8-dihydroquinazolin-5(6H)-one] | < 1
26 | Cc1nc(N)nc2c1C(=O)CC(c1ccccc1-c1ccccc1Cl)C2 (stereo not shown) [Compound 79, 2-amino-7-(2′-chloro-1,1′-biphenyl-2-yl)-4-methyl-7,8-dihydroquinazolin-5(6H)-one] | < 1
27 | Cc1nc(N)nc2c1C(=O)CC(c1ccccc1-c1ccnc(Cl)c1)C2 (stereo not shown) [Compound 82, 2-amino-7-[2-(2-chloropyridin-4-yl)phenyl]-4-methyl-7,8-dihydroquinazolin-5(6H)-one] | 1 to 10

Continued, values first:

Row | IC50 [µM] | Structure (SMILES)
28 | < 1 | Cc1nc(N)nc2c1C(=O)CC(c1ccccc1C1=CCCCC1)C2 (stereo not shown) [Compound 44, 2-amino-7-(2-cyclohex-1-en-1-ylphenyl)-4-methyl-7,8-dihydroquinazolin-5(6H)-one]
29 | < 1 | Cc1nc(N)nc2c1C(=O)CC(c1ccccc1-c1ccccc1F)C2 (stereo not shown) [Compound 51, 2-amino-7-(2′-fluoro-1,1′-biphenyl-2-yl)-4-methyl-7,8-dihydroquinazolin-5(6H)-one]
30 | < 1 | Cc1nc(N)nc2c1C(=O)CC(c1ccccc1-c1ccc(F)nc1)C2 (stereo not shown) [Compound 56, 2-amino-7-[2-(6-fluoropyridin-3-yl)phenyl]-4-methyl-7,8-dihydroquinazolin-5(6H)-one]
31 | < 1 | Cc1nc(N)nc2c1C(=O)CC(c1cccnc1-c1ccccc1F)C2 (stereo not shown) [Compound 57, 2-amino-7-[2-(2-fluorophenyl)pyridin-3-yl]-4-methyl-7,8-dihydroquinazolin-5(6H)-one]
32 | < 1 | Cc1nc(N)nc2c1C(=O)CC(c1cnccc1-c1cccnc1F)C2 (stereo not shown) [Compound 61, 2-amino-7-(2-fluoro-[3,4′]bipyridinyl-3′-yl)-4-methyl-7,8-dihydro-6H-quinazolin-5-one]
33 | 1 to 10 | COc1cccc(-c2ccccc2C2CC(=O)c3c(C)nc(N)nc3C2)c1 (stereo not shown) [Compound 69, 2-amino-7-(3′-methoxy-1,1′-biphenyl-2-yl)-4-methyl-7,8-dihydroquinazolin-5(6H)-one]
34 | < 1 | COc1ccc(-c2cccnc2)c(C2CC(=O)c3c(C)nc(N)nc3C2)c1 (stereo not shown) [Compound 71, 2-amino-7-(5-methoxy-2-pyridin-3-ylphenyl)-4-methyl-7,8-dihydroquinazolin-5(6H)-one]
35 | 1 to 10 | COc1cncc(-c2ccccc2C2CC(=O)c3c(C)nc(N)nc3C2)c1 (stereo not shown) [Compound 73, 2-amino-7-[2-(5-methoxypyridin-3-yl)phenyl]-4-methyl-7,8-dihydroquinazolin-5(6H)-one]
36 | 1 to 10 | COc1ccc(-c2ccccc2C2CC(=O)c3c(C)nc(N)nc3C2)cn1 (stereo not shown) [Compound 74, 2-amino-7-[2-(6-methoxypyridin-3-yl)phenyl]-4-methyl-7,8-dihydroquinazolin-5(6H)-one]
37 | < 1 | Cc1ccc(F)c(-c2ccccc2C2CC(=O)c3c(C)nc(N)nc3C2)c1 (stereo not shown) [Compound 76, 2-amino-7-(2′-fluoro-5′-methyl-1,1′-biphenyl-2-yl)-4-methyl-7,8-dihydroquinazolin-5(6H)-one]
38 | < 1 | Cc1ccc(-c2ccccc2C2CC(=O)c3c(C)nc(N)nc3C2)c(F)c1 (stereo not shown) [Compound 77, 2-amino-7-(2′-fluoro-4′-methyl-1,1′-biphenyl-2-yl)-4-methyl-7,8-dihydroquinazolin-5(6H)-one]
39 | < 1 | Cc1nc(N)nc2c1C(=O)CC(c1ccccc1-c1cccnc1Cl)C2 (stereo not shown) [Compound 80, 2-amino-7-[2-(2-chloropyridin-3-yl)phenyl]-4-methyl-7,8-dihydroquinazolin-5(6H)-one]
40 | < 1 | Cc1nc(N)nc2c1C(=O)CC(c1ccccc1-c1cnccc1Cl)C2 (stereo not shown) [Compound 81, 2-amino-7-[2-(4-chloropyridin-3-yl)phenyl]-4-methyl-7,8-dihydroquinazolin-5(6H)-one]
